Assay results as given in BigSolDB 2.1.

O=C(O)c1ccc[nH]c1=O
solubility (mole fraction)
Conditions | in acetone | in acetonitrile | in ethanol | in ethyl acetate | in isopropanol | in methanol | in n-butanol | in n-butyl acetate | in sec-butanol | in water
293.15 K | 0.00135 | 0.000837 | 0.000992 | 0.000248 | 0.000278 | 0.00097 | 0.000215 | 5.2e-05 | 0.000138 | 0.000796
303.15 K | 0.00199 | 0.00116 | 0.00134 | 0.000365 | 0.000401 | 0.00146 | 0.00031 | 7.5e-05 | 0.000199 | 0.00111
308.15 K | 0.00233 | – | – | – | – | – | – | – | – | –
313.15 K | 0.00277 | 0.00169 | 0.00177 | 0.000559 | 0.000565 | 0.0021 | 0.000437 | 0.000105 | 0.000283 | 0.00159
318.15 K | 0.0033 | 0.0019 | 0.00218 | 0.000661 | 0.000595 | 0.00253 | 0.000515 | 0.000124 | 0.000331 | 0.00195
323.15 K | 0.00374 | 0.00218 | 0.0025 | 0.000795 | 0.000772 | 0.00297 | 0.000603 | 0.000146 | 0.000384 | 0.00237
333.15 K | – | 0.00282 | 0.00351 | 0.00124 | 0.00106 | 0.00378 | 0.000817 | 0.000197 | 0.000525 | 0.00326
